# Reference: article PMC4865845, “A human genome-wide loss-of-function screen identifies effective chikungunya antiviral drugs” (Nature Communications, 2016)
# System: CHIKV
# Format: cell-based, chikungunya virus
Substance,Score_si3,Score_si2,Score_si1,Score_si4
Hs_ZA20D1_2 (CAGGATGACATCGTTCAAGAA; chemistry not given here),1.15,,,
Hs_ZBTB24_1 (CTCCAGGAAATTAAATATTTA; chemistry not given here),,1.74,,
Hs_ZBTB24_2 (CAGCATGTGTCTGTAATTGTA; chemistry not given here),,,2.57,
Hs_ZNF261_1 (AAGGTCTTATCTGAAAGGTAA; chemistry not given here) [reference compound],,,-2.35,
Hs_ZZZ3_1 (CAGCCTGATGGGAACACTAAA; chemistry not given here) [reference compound],,,-2.9,
Hs_ZZZ3_2 (TAGGAATTTACCTGAATATAA; chemistry not given here) [reference compound],,-2.58,,
n268452 (AGCTGGCCATCGAAAGGTA; chemistry not given here),,,0.81,
s29 (CCCATAATATCATTGAGAA; chemistry not given here),,1.87,,
s79 (sense CCAGCTATCTATAACCTTA; chemistry not given here),,,,2.02
s81 (sense GGATGATTTAGAATTGTCA; chemistry not given here),2.08,,,
s322 (GGTTGTCCTTGAGTAATAA; chemistry not given here),,,1.71,
s617 (sense GGTCTTGGAGGGAATCCTA; chemistry not given here),,1.33,,
s619 (sense CTGCAGTTGTGGTTGGATA; chemistry not given here),,,1.92,
s915 (CATCCAGTCTGTATACGAA; chemistry not given here),,,1.9,
s916 (GCATCGCAAACTTCACCAA; chemistry not given here),1.06,,,
s922 (CATTAACATTGTTCGCAAA; chemistry not given here),,,,1.81
s923 (AATTCAAGCTATGAAGATA; chemistry not given here),,1.99,,
s992 (GTGTTTTTCCGTAAGCATA; chemistry not given here) [reference compound],-0.52,,,
s993 (GGTGCGTCATATGCAGGAA; chemistry not given here) [reference compound],,-0.55,,
s994 (GAGGAAGTCCTAAATCACA; chemistry not given here) [reference compound],,,,1.87
s1522 (sense GGATCAAGCTGCCCATCTA; chemistry not given here),,1.17,,
s1523 (sense CCGGCATCTTTGCTACCTA; chemistry not given here),,,,0.87

Substance,Score_si3,Score_si2,Score_si1,Score_si4
s1698 (CGAACTACACCTTCAGCTA; chemistry not given here) [reference compound],-0.99,,,
s1907 (sense GAACTTAGCTAAATTGACT; chemistry not given here),,,,0.58
s2529 (sense GCACCCGGTTTATCAGTAA; chemistry not given here),,,,0.17
s2664 (sense CGTCCATGTTTATCTACAA; chemistry not given here),,,,0.12
s2665 (sense GCTTCAGGATGTGCCCAAA; chemistry not given here),0.58,,,
s2822 (sense TGCTGACTTTTAACCCACA; chemistry not given here),,,,1
s3112 (GGATGAGATTCTAGACTTT; chemistry not given here),1.86,,,
s3113 (GGCGAGAGGGTATCAAGTA; chemistry not given here),,,,1.79
s3114 (GAAGAGCAGTCACAGATCA; chemistry not given here),,2.05,,
s3145 (GACCCTTACCTGGAAGTTT; chemistry not given here),,0.19,,
s3146 (GACCATGGATAATAAGAAA; chemistry not given here),,,,-0.15
s3162 (CATTTCGACTGGATCATAT; chemistry not given here),,,1.86,
s3163 (CTATCTTGGGTTTACCGTA; chemistry not given here),,1.54,,
s3625 (CAGTGAAGCTAGAATCTCA; chemistry not given here),,,,1.54
s3626 (GAATTTGCGATGTACTTAA; chemistry not given here),,1.98,,
s4917 (sense GTGTATGAGTTTAGAGTCA; chemistry not given here),,1.15,,
s4918 (sense GGCACTTACTATGACAATT; chemistry not given here),1.02,,,
s5030 (sense GGTATGCGACGGGAAAGTA; chemistry not given here),1.75,,,
s5031 (sense CCGTGGACCTGATCATCAA; chemistry not given here),,2.04,,
s5032 (sense GGAGCGTATCTGTGAGAAA; chemistry not given here),,,,1.56
s5082 (sense CCTCGATAATATAACACGA; chemistry not given here),,,,0.67
s5083 (sense CGTCGTCACTAACAGTCAA; chemistry not given here),1.11,,,

Substance,Score_si3,Score_si2,Score_si1,Score_si4
s5295 (sense CGAGGTCATTGTGCATGAA; chemistry not given here),,,,0.77
s5296 (sense GCTTCACCATCGAATCCAA; chemistry not given here),1.01,,,
s5569 (sense AGGCTGAAGCTAATAAGAA; chemistry not given here),0.16,,,
s5570 (sense TGAACAAGATGGTATCAAA; chemistry not given here),,,,-0.08
s5571 (sense GCAGGACGAGGGTAAAGAA; chemistry not given here),,0.56,,
s6097 (sense TCAGGACCCTGTACACCCA; chemistry not given here),,,,0.9
s6098 (sense CCTTTAACGTGGACATGTA; chemistry not given here),,,1.88,
s6126 (sense GAATGCTCCTTTACCAGAA; chemistry not given here),,0.75,,
s6350 (sense GCCCATATACATTCTGCAA; chemistry not given here) [reference compound],,,,-0.73
s6670 (sense CAACAGGAGGAAGACTTTA; chemistry not given here),,,,-0.15
s6671 (sense CAACGAAAATCTAAATGCA; chemistry not given here),,0.2,,
s6672 (sense GACTAATGAACTACTAAAA; chemistry not given here),0.16,,,
s7005 (sense AGAAAAATCTCAAGGAAAA; chemistry not given here),1.86,,,
s7007 (sense GGATCGGGTTCTAAAGGAA; chemistry not given here),,1.87,,
s7586 (sense CCTACTGTCTGGTAGCGAT; chemistry not given here),,1.49,,
s8004 (sense GTGGAGGAATGGTTCAATA; chemistry not given here),0.87,,,
s8005 (sense CCATGACTCCTGACTACCA; chemistry not given here),,,,0.75
s8261 (sense GGGTGGAGGTGTACTATGA; chemistry not given here),0.99,,,
s8290 (sense GGTGCTAACCGGATAGTAT; chemistry not given here),,,,0.74
s8292 (sense GGATTGTTATCCGACTGAA; chemistry not given here),1.63,,,
s8322 (GGTCGGAGATTTGCAAGGA; chemistry not given here),1.44,,,
s8324 (GCTGGGAAGGGATACCACA; chemistry not given here),,,1.92,

Substance,Score_si3,Score_si2,Score_si1,Score_si4
s8541 (CAATCTCCGGAGGCACGAA; chemistry not given here),0.12,,,
s8542 (AGGTTTTAACGATTTGTTT; chemistry not given here),,0.14,,
s8543 (CCTCAACAGTCACGTCAGA; chemistry not given here),,,,-0.08
s9030 (CATCTGGAATTAACTGGAT; chemistry not given here),1.53,,,
s9031 (CGACGACAGCTACTGGTTT; chemistry not given here),,,,0.9
s9324 (ACAACTTCAGTGCTGATCA; chemistry not given here),0.83,,,
s9325 (CTTCAGTGCTGATCAGGTA; chemistry not given here),,,,0.41
s9326 (GGACTTAGTATAATGTGAA; chemistry not given here),,1,,
s9337 (GCTCTCCAACAATTACTAT; chemistry not given here) [reference compound],,,,-0.09
s9338 (ACAAGCTCTCCAACAATTA; chemistry not given here) [reference compound],,-0.79,,
s9339 (TCACTTCTAGTTTTACTTT; chemistry not given here) [reference compound],-0.69,,,
s9627 (GGACCAGTTTGAGAGTGAA; chemistry not given here),,1.39,,
s9628 (GACCTAAAGAAGGAGATTA; chemistry not given here),,,,1.13
s9665 (CTCTCGTCCTTCTAGTAAA; chemistry not given here) [reference compound],-0.95,,,
s9666 (CGTGTACTCTGTTTCGACA; chemistry not given here) [reference compound],,,,-0.83
s9719 (GGTCTATGATTGACAAGTA; chemistry not given here),,,1.65,
s10094 (AGATCAAAGAGATCCGCGA; chemistry not given here),,,,0.28
s10096 (GGTGTAAGATCAAAGAGAT; chemistry not given here),1.3,,,
s10394 (GCTTTATGCTGCTAAGGCA; chemistry not given here),,,,1.23
s10395 (sense GGACGACTTCTTTAAGTCA; chemistry not given here),1.58,,,
